Tested on: T1, SWELL1 protein in 3T3-F442A adipocytes
T1 construct: host or cells: 3T3-F442A preadipocytes and differentiated adipocytes (wild type)
Assay: SWELL1 protein western blot in adipocytes
Assay type: cell-based, murine
Conditions: for SWELL1 protein level relative to vehicle-treated controls: 10 and 1 μM, 4 days, then 6 h serum starving
Experimental: In the case of 3T3-F442A adipocytes, the WT and KO cells were treated with either vehicle (DMSO), 1 or 10 µM SN-40X (after 7–11 days of differentiation) for 96 h and then stimulated with 0 and 10 nM insulin/serum-containing media with vehicle (DMSO) or SN-40X for 15 min for SWELL1 detection. […] To simulate glucolipotoxicity, 8 mM sodium palmitate was dissolved in 18.4% fatty-acid free BSA at 37 °C in DMEM medium with 25 mM glucose to obtain a conjugation ratio of 1:3 palmitate:BSA[80].
Adipocytes were washed twice in ice-cold phosphate buffer saline and lysed in RIPA buffer (150 mM NaCl, 20 mM HEPES, 1% NP-40, 5 mM EDTA, pH 7.4) with proteinase/phosphatase inhibitors (Roche). The cell lysate was further sonicated in 10 s cycle intervals 2–3 times and centrifuged at 18,407×g for 30 min at 4 °C and repeated one more time to remove the excess fat. The supernatant was collected and further estimated for protein concentration using a DC protein assay kit (Bio-Rad). Fat and liver tissues were homogenized and suspended in RIPA buffer with inhibitors and further processed in a similar fashion as described above. HUVECs were also prepared in a similar fashion except the lysates were spun only once to remove the cells debris to obtain the clear supernatant. For islets, either human or mouse islets were washed twice with phosphate buffer saline (PBS) and lysed using RIPA buffer containing protease and phosphatase inhibitors. The lysate was further clarified by freezing in liquid nitrogen for about 10 s for three cycles. The supernatant was collected from the whole lysate centrifuged at 16,260×g for 20 min at 4 °C. […] For soleus muscle, the tissue was homogenized in a Bullet Blender homogenizer (Speed-9, Time-3 mins) in 8 volumes of ice-cold muscle homogenization buffer (50 mM Tris, 25 mM NaCl, 0.2% Nonidet P-40, 5 mM EGTA, 2.5 mM EDTA, 20 mM NaF, 20 mM Na4P2O7·10H2O, 2 mM Na3VO4, pH 7.4) supplemented with protease/phosphatase inhibitor (Roche). The homogenized lysate was centrifuged two times at 18,500×g for 20 min at 4 °C and supernatant was collected for protein estimation. Protein samples were further prepared by boiling in 2X or 4X Laemmli buffer. Approximately 10–60 µg of total protein was loaded in 4–15% gradient gel (Bio-Rad) for separation and protein transfer was carried out onto the PVDF membranes (Bio-Rad). Membranes were blocked in 5% BSA (or 5% milk for SWELL1) in TBST buffer (0.2 M Tris, 1.37 M NaCl, 0.2% Tween-20, pH 7.4) for 1 h and incubated with appropriate primary antibodies (5% BSA or milk) overnight at 4 °C. […] The images were further analyzed for band intensities using ImageJ software. […]

SMILES | SWELL1 protein level relative to vehicle-treated controls | SWELL1 protein expression (3T3-F442A adipocytes, 10 µM, 96 h)
CCCCC1(C2CCCC2)Cc2cc(OCC(=O)O)c(Cl)c(Cl)c2C1=O (stereo not drawn) [Inactive 1, 2-((2-butyl-6,7-dichloro-2-cyclopentyl-1-oxo-2,3-dihydro-1H-inden-5-yl)oxy)acetic acid] | did not significantly increase | 
CCCCC1(C2CCCC2)Cc2cc(OCCCC(=O)O)c(Cl)c(Cl)c2C1=O (stereo not drawn) [SN-401, 4-((2-butyl-6,7-dichloro-2-cyclopentyl-1-oxo-2,3-dihydro-1H-inden-5-yl)oxy)butanoic acid] |  | 1.5 fold control expression
CCCCC1(C2CCCC2)Cc2cc(OCCCCCC(=O)O)c(Cl)c(Cl)c2C1=O (stereo not drawn) [SN-406, 6-((2-butyl-6,7-dichloro-2-cyclopentyl-1-oxo-2,3-dihydro-1H-inden-5-yl)oxy)hexanoic acid] | 1.5–2.1 fold | 

Reference: PMC8831520, “Small molecule SWELL1 complex induction improves glycemic control and nonalcoholic fatty liver disease in murine Type 2 diabetes” (Nature Communications, 2022)
